In patent publication US6235731A, “Fused imidazopyridine derivatives as antihyperlipidemic agents” (Takeda Chemical Industries, Ltd., priority 1996, dated 2001):
Counter-ions that a name gives are not always drawn. Like-named read-outs stand apart in the source and are kept apart here.

Columns and labels:
Golden Syrian hamsters = assay: Cholesterol lowering activity in Golden hamster; type: in vivo, Golden Syrian hamster; conditions: Mesocricetus auratus, po, 96 h, 20 mg/kg/d orally, once daily for 4 days
Method: Cholesterol lowering activity in Golden hamster Male Golden Syrian hamsters (110-130 g) were maintained freely on water and a laboratory diet (CE-2, Clea Japan Inc., Tokyo). […] Blood was taken from orbital sinus and plasma total cholesterol and triglyceride were measured an automatic analyzer (Hitachi 7070, Hitachi Ltd., Tokyo) using commercial kits (Wako Pure Chemical Industries, Osaka), and plasma HDL-cholesterol using a commercial kit (Kyowa Medex Co., Ltd., Tokyo) before and after the treatment of compound. Non-HDL cholesterol was calculated by subtracting HDL-cholesterol from total cholesterol. |Non-HDL-C (non-HDL-cholesterol): [total cholesterol]-[HDL-cholesterol] |TG: triglyceride

HepG2 cells = assay: Increase in LDL-binding to HepG2 cells; type: cell-based; conditions: 10 μM test compound, 20 hours, specific human [125I]LDL binding, normalized by protein, read-out: LDL binding (% of control)
Method: Increase in LDL-binding to HepG2 cells LDL-binding was measured according to the method of J. L. Goldstein. HepG2 cells were purchased from ATCC (American type culture collection) and seeded in 6-well plate with collagen coating (Sumitomo Bakelite), and cultured in Eagle's minimum essential medium (MEM) containing 10%-fetal bovine serum at 37° C. for 4 days. […] After washing with phosphate buffered saline cells were incubated with MEM containing 25 mM-HEPES and 1%-bovine serum albumin (fatty acid free) in the presence of human [^125 I]LDL (4 μg/ml) at 6° C. for 2 hours. After washing cells bound [^125 I]LDL was dissociated with dextran sulfate and the radioactivity was measured (total binding). [^125 I]LDL binding to cells was also measured in the presence of LDL (300 μg/ml) as a non-specific binding (NSB). Specific [^125 I]LDL-binding was calculated by subtracting NSB from total binding and was normalized by protein content measured by the method of lowry. Data was expressed as percentage of the control.

[1] = plasma triglyceride, read-out: TG (% of control)
[2] = plasma, [total cholesterol]-[HDL-cholesterol], read-out: Non-HDL-C (% of control)

O=C(NCC1CCN(C[C@@H]2COc3ccccc3O2)CC1)C1=Cc2cnc3cccc(n23)S1 [Example 1, (R)-N-[1-(1,4-benzodioxan-2-ylmethyl)piperidin-4-ylmethyl]-5-thia-1,8b-diazaacenaphthylene-4-carboxamide dihydrochloride] gave a response vs control in vivo at 20 mg/kg (Golden Syrian hamsters; [1]) of 78.4%, a response vs control in vivo at 20 mg/kg (Golden Syrian hamsters; [2]) of 68.6% and an activity at 10 µM (HepG2 cells) of 203%.
In the case of O=C(NCC1CCN(C[C@H]2COc3ccccc3O2)CC1)C1=Cc2cnc3cccc(n23)S1 [Example 2, (S)-N-[1-(1,4-benzodioxan-2-ylmethyl)piperidin-4-ylmethyl]-5-thia-1,8b-diazaacenaphthylene-4-carboxamide], the response vs control in vivo at 20 mg/kg (Golden Syrian hamsters; [1]) is reported as 102%, the response vs control in vivo at 20 mg/kg (Golden Syrian hamsters; [2]) is reported as 65.1% and the activity at 10 µM (HepG2 cells) is reported as 172%.
O=C(NCC1CCN(CC2COc3ccccc3O2)CC1)C1=Cc2cnc3cccc(n23)S1 (centres unmarked) [Example 3, N-[1-(1,4-benzodioxan-2-ylmethyl)piperidin-4-ylmethyl]-5-thia-1,8b-diazaacenaphthylene-4-carboxamide dihydrochloride] was tested, and the response vs control in vivo at 20 mg/kg (Golden Syrian hamsters; [1]) was 91.3%, the response vs control in vivo at 20 mg/kg (Golden Syrian hamsters; [2]) was 69.5% and the activity at 10 µM (HepG2 cells) was 194%.
For O=C(C=CC1=Cc2cnc3cccc(n23)S1)NCC1CCN(CCCc2ccccc2)CC1 [Example 9, N-[1-(3-phenylpropan-1-yl)piperidin-4-ylmethyl]-3-(5-thia-1,8b-diazaacenaphthylen-4-yl)acrylamide dihydrochloride], the response vs control in vivo at 20 mg/kg (Golden Syrian hamsters; [1]) was 67%, the response vs control in vivo at 20 mg/kg (Golden Syrian hamsters; [2]) was 62.3% and the activity at 10 µM (HepG2 cells) was 247%.
For O=C(C=CC1=Cc2cnc3cccc(n23)S1)NC1CCN(CCCc2ccccc2)CC1 [Example 10, N-[1-(3-phenylpropan-1-yl)piperidin-4-yl]-3-(5-thia-1,8b-diazaacenaphthylen-4-yl)acrylamide dihydrochloride], the response vs control in vivo at 20 mg/kg (Golden Syrian hamsters; [1]) was 70.8%, the response vs control in vivo at 20 mg/kg (Golden Syrian hamsters; [2]) was 61% and the activity at 10 µM (HepG2 cells) was 169%.
O=C(NCCCCN1CCC(c2ccccc2)CC1)C1=Cc2cnc3cccc(n23)S1 [Example 26, N-[4-(4-phenylpiperidin-1-yl)butan-1-yl]-5-thia-1,8b-diazaacenaphthylene-4-carboxamide Dihydrochloride] was tested, and the response vs control in vivo at 20 mg/kg (Golden Syrian hamsters; [1]) was 82%, the response vs control in vivo at 20 mg/kg (Golden Syrian hamsters; [2]) was 66.4% and the activity at 10 µM (HepG2 cells) was 189%.
O=C(NCCCN1CCC(c2ccccc2)CC1)C1=Cc2cnc3cccc(n23)S1 [Example 27, N-[3-(4-phenylpiperidin-1-yl)propan-1-yl]-5-thia-1,8b-diazaacenaphthylene-4-carboxamide Dihydrochloride] gave a response vs control in vivo at 20 mg/kg (Golden Syrian hamsters; [1]) of 83.9%, a response vs control in vivo at 20 mg/kg (Golden Syrian hamsters; [2]) of 73.9% and an activity at 10 µM (HepG2 cells) of 168%.
O=C(NCCCCN1CCC(Cc2ccccc2)CC1)C1=Cc2cnc3cccc(n23)S1 [Example 28, N-[4-(4-benzylpiperidin-1-yl)butan-1-yl]-5-thia-1,8b-diazaacenaphthylene-4-carboxamide Dihydrochloride] gave a response vs control in vivo at 20 mg/kg (Golden Syrian hamsters; [1]) of 61.3%, a response vs control in vivo at 20 mg/kg (Golden Syrian hamsters; [2]) of 62.9% and an activity at 10 µM (HepG2 cells) of 194%.
With O=C(NCCCN1CCC(Cc2ccccc2)CC1)C1=Cc2cnc3cccc(n23)S1 [Example 29, N-[3-(4-benzylpiperidin-1-yl)propan-1-yl]-5-thia-1,8b-diazaacenaphthylene-4-carboxamide Dihydrochloride] the response vs control in vivo at 20 mg/kg (Golden Syrian hamsters; [1]) was 73.9% and the response vs control in vivo at 20 mg/kg (Golden Syrian hamsters; [2]) was 68.1%.
Work on O=C(NCCCCN1CCN(Cc2ccccc2)CC1)C1=Cc2cnc3cccc(n23)S1 [Example 32, N-[4-(4-benzyl-1-piperazinyl)butan-1-yl]-5-thia-1,8b-diazaacenaphthylene-4-carboxamide Trihydrochloride] yielded a response vs control in vivo at 20 mg/kg (Golden Syrian hamsters; [1]) of 76.5% and a response vs control in vivo at 20 mg/kg (Golden Syrian hamsters; [2]) of 76.6%.
O=C(NCCCN1CCN(Cc2ccccc2)CC1)C1=Cc2cnc3cccc(n23)S1 [Example 33, N-[3-(4-benzyl-1-piperazinyl)propan-1-yl]-5-thia-1,8b-diazaacenaphthylene-4-carboxamide Trihydrochloride] was tested, and the response vs control in vivo at 20 mg/kg (Golden Syrian hamsters; [1]) was 85.6% and the response vs control in vivo at 20 mg/kg (Golden Syrian hamsters; [2]) was 77.1%.
For O=C(NCCCCN1CCc2ccccc2C1)C1=Cc2cnc3cccc(n23)S1 [Example 34, N-[4-(1,2,3,4-tetrahydroisoquinolin-2-yl)butan-1-yl]-5-thia-1,8b-diazaacenaphthylene-4-carboxamide Dihydrochloride], the response vs control in vivo at 20 mg/kg (Golden Syrian hamsters; [1]) was 74.7% and the response vs control in vivo at 20 mg/kg (Golden Syrian hamsters; [2]) was 72.2%.
For O=C(NC1CCN(CCCc2ccccc2)CC1)C1=Cc2cnc3cccc(n23)S1 [Example 36, N-[1-(3-phenylpropan-1-yl)piperidin-4-yl]-5-thia-1,8b-diazaacenaphthylene-4-carboxamide Dihydrochloride], the response vs control in vivo at 20 mg/kg (Golden Syrian hamsters; [1]) was 74.7%, the response vs control in vivo at 20 mg/kg (Golden Syrian hamsters; [2]) was 61.9% and the activity at 10 µM (HepG2 cells) was 218%.
O=C(NC1CCN(CCCc2ccccc2Cl)CC1)C1=Cc2cnc3cccc(n23)S1 [Example 39, N-[1-[3-(2-chlorophenyl)propan-1-yl]piperidin-4-yl]-5-thia-1,8b-diazaacenaphthylene-4-carboxamide dihydrochloride] gave a response vs control in vivo at 20 mg/kg (Golden Syrian hamsters; [1]) of 62.6% and a response vs control in vivo at 20 mg/kg (Golden Syrian hamsters; [2]) of 62.7%.
Molecule O=C(NCCCC1CCN(CCCc2ccccc2)CC1)C1=Cc2cnc3cccc(n23)S1 [Example 46, N-[3-(1-(3-phenylpropan-1-yl)piperidin-4-yl)propan-1-yl]-5-thia-1,8b-diazaacenaphthylene-4-carboxamide Dihydrochloride] has a response vs control in vivo at 20 mg/kg (Golden Syrian hamsters; [1]) of 72.4%, a response vs control in vivo at 20 mg/kg (Golden Syrian hamsters; [2]) of 69.6% and an activity at 10 µM (HepG2 cells) of 166%.
Molecule O=C(C1=Cc2cnc3cccc(n23)S1)N(Cc1ccccc1)CC1CCN(CCCc2ccccc2)CC1 [Example 52, N-benzyl-N-[1-(3-phenylpropan-1-yl)piperidin-4-ylmethyl]-5-thia-1,8b-diazaacenaphthylene Dihydrochloride] has an activity at 10 µM (HepG2 cells) of 183%.
O=C(NCCN1CCN(CCCc2ccccc2)CC1)C1=Cc2cnc3cccc(n23)S1 [Example 58, N-[2-(4-(3-phenylpropan-1-yl)piperazin-1-yl)ethan-1-yl]-5-thia-1,8b-diazaacenaphthylene-4-carboxamide Trihydrochloride] was tested, and the response vs control in vivo at 20 mg/kg (Golden Syrian hamsters; [1]) was 71.2% and the response vs control in vivo at 20 mg/kg (Golden Syrian hamsters; [2]) was 74%.
O=C(NCC1CCN(CCCc2ccccc2F)CC1)C1=Cc2cnc3cccc(n23)S1 [Example 67, N-[1-(3-(2-fluorophenyl)propan-1-yl)piperidin-4-ylmethyl]-5-thia-1,8b-diazaacenaphthylene-4-carboxamide Dihydrochloride] showed a response vs control in vivo at 20 mg/kg (Golden Syrian hamsters; [1]) of 67.9%, a response vs control in vivo at 20 mg/kg (Golden Syrian hamsters; [2]) of 62% and an activity at 10 µM (HepG2 cells) of 162%.
For O=C(NCC1CCN(CCc2ccccc2F)CC1)C1=Cc2cnc3cccc(n23)S1 [Example 68, N-[1-(2-fluorophenethyl)piperidin-4-ylmethyl]-5-thia-1,8b-diazaacenaphthylene-4-carboxamide Dihydrochloride], the response vs control in vivo at 20 mg/kg (Golden Syrian hamsters; [1]) was 74.3% and the response vs control in vivo at 20 mg/kg (Golden Syrian hamsters; [2]) was 58.5%.
For O=C(NCC1CCN(CCc2ccc(F)cc2)CC1)C1=Cc2cnc3cccc(n23)S1 [Example 70, N-[1-(4-fluorophenethyl)piperidin-4-ylmethyl]-5-thia-1,8b-diazaacenaphthylene-4-carboxamide Dihydrochloride], the response vs control in vivo at 20 mg/kg (Golden Syrian hamsters; [1]) was 71.2% and the response vs control in vivo at 20 mg/kg (Golden Syrian hamsters; [2]) was 47.9%.
O=C(NCC1CCN(CCCc2cccc(F)c2)CC1)C1=Cc2cnc3cccc(n23)S1 [Example 74, N-[1-(3-(3-fluorophenyl)propan-1-yl)piperidin-4-ylmethyl]-5-thia-1,8b-diazaacenaphthylene-4-carboxamide Dihydrochloride] was tested, and the response vs control in vivo at 20 mg/kg (Golden Syrian hamsters; [1]) was 67.9% and the response vs control in vivo at 20 mg/kg (Golden Syrian hamsters; [2]) was 73.5%.
O=C(NCC1CCN(CCCc2ccccc2Cl)CC1)C1=Cc2cnc3cccc(n23)S1 [Example 77, N-[1-(3-(2-chlorophenyl)propan-1-yl)piperidin-4-ylmethyl]-5-thia-1,8b-diazaacenaphthylene-4-carboxamide Dihydrochloride] was tested, and the activity at 10 µM (HepG2 cells) was 168%.
COc1ccccc1CCCN1CCC(CNC(=O)C2=Cc3cnc4cccc(n34)S2)CC1 [Example 80, N-[1-(3-(2-methoxyphenyl)propan-1-yl)piperidin-4-ylmethyl]-5-thia-1,8b-diazaacenaphthylene-4-carboxamide Dihydrochloride] gave an activity at 10 µM (HepG2 cells) of 248%.
In the case of O=C(NCC1CCN(CCCOc2ccc(F)cc2)CC1)C1=Cc2cnc3cccc(n23)S1 [Example 113, N-[1-(3-(4-fluorophenoxy)propan-1-yl)piperidin-4-ylmethyl]-5-thia-1,8b-diazaacenaphthylene-4-carboxamide Dihydrochloride], the activity at 10 µM (HepG2 cells) is reported as 140%.
With O=C(NCC1CCN(CCCOc2ccc(F)cc2F)CC1)C1=Cc2cnc3cccc(n23)S1 [Example 117, N-[1-(3-(2,4-difluorophenoxy)propan-1-yl)piperidin-4-ylmethyl]-5-thia-1,8b-diazaacenaphthylene-4-carboxamide Dihydrochloride] the activity at 10 µM (HepG2 cells) was 137%.
